Laboratory results as given in patent US8962694B2, “Composition for pest control” (priority 2006, dated 2015).
Where “and” joins values, the source holds several entries; their conditions need not be identical. Equal values may be shown once.

Experiments:
cane toads [1] = assay: Trial 2 single spray application of test pesticidal compositions; type: in vivo, Bufo marinus
Description: The tests conducted in the second trial involved a single spray application of various test pesticidal compositions on cane toads. A hand-operated spray bottle was used to deliver a single standard dose of 3.0-3.3 gm of the particular test pesticidal agent to the dorsal surface of each animal. Animals were subsequently continuously monitored for their response to the treatment.

cane toads [2] = assay: Trial 1 two-step test: ethanol anaesthesia, then pesticidal agent applied to dorsal surface; type: in vivo, Bufo marinus
Procedure: Testing of the efficacy of various compositions for the purpose of cane toad extermination was conducted in two trials. The first trial comprised a “two-step” test in which subject toads were initially exposed to an anaesthetic agent and, once anaesthetised, exposed to a pesticidal agent (i.e. killing agent) in the presence of a suitable carrier. This two-step approach was undertaken to ensure the humane extermination of the animals.
Subject animals were therefore exposed to an approximate total dose of 3-4 ml of materials, comprising 2-3 gm of an anaesthetising agent (i.e. ethanol) and up to 1.0 ml of the particular pesticidal agent to be tested. A mist of ethanol was applied (“primary treatment”) to the dorsal surface of the toad from a hand-held spray bottle. When the toad was stupefied, as judged by the inability of the animal to right itself onto its ventral surface when turned onto its back (generally 10-15 minutes after treatment), the test pesticidal agent was administered (“secondary treatment”) onto the animal's dorsal surface by means of a micropipette. The test pesticidal agent included chloroxylenol (i.e. 4-chloro 3,5-dimethyl phenol) in different carriers including ethanol, isopropanol, propanol and dilute solutions thereof. Animals were monitored continuously for their response to the treatment.

cane toads [3] = system: cane toads
[4] = large toads (≧140 gm), carrier 40% ethanol with 60% isopropanol, chloroxylenol content 3.75%
[5] = large toads (≧140 gm), carrier 40% ethanol with 60% isopropanol, chloroxylenol content 5.00%
[6] = large toads (≧140 gm), carrier 60% ethanol with 40% isopropanol, chloroxylenol content 5.00%
[7] = large toads (≧140 gm), carrier 70% ethanol with 30% isopropanol, chloroxylenol content 2.00%
[8] = large toads (≧140 gm), carrier 70% ethanol with 30% isopropanol, chloroxylenol content 2.50%
[9] = large toads (≧140 gm), carrier 80% ethanol with 20% isopropanol, chloroxylenol content 2.50%
[10] = large toads (≧140 gm), carrier 80% ethanol with 20% isopropanol, chloroxylenol content 3.75%
[11] = large toads (≧140 gm), carrier 80% ethanol with 20% isopropanol, chloroxylenol content 5.00%
[12] = medium size toads (90.0-139.9 gm), carrier 40% ethanol with 60% isopropanol, chloroxylenol content 3.75%
[13] = medium size toads (90.0-139.9 gm), carrier 40% ethanol with 60% isopropanol, chloroxylenol content 5.00%
[14] = medium size toads (90.0-139.9 gm), carrier 60% ethanol with 40% isopropanol, chloroxylenol content 5.00%
[15] = medium size toads (90.0-139.9 gm), carrier 70% ethanol with 30% isopropanol, chloroxylenol content 2.00%
[16] = medium size toads (90.0-139.9 gm), carrier 70% ethanol with 30% isopropanol, chloroxylenol content 2.50%
[17] = medium size toads (90.0-139.9 gm), carrier 80% ethanol with 20% isopropanol, chloroxylenol content 2.50%
[18] = medium size toads (90.0-139.9 gm), carrier 80% ethanol with 20% isopropanol, chloroxylenol content 3.75%
[19] = medium size toads (90.0-139.9 gm), carrier 80% ethanol with 20% isopropanol, chloroxylenol content 5.00%
[20] = pooled chloroxylenol concentrations and ethanol/propanol carriers (FIGS. 1 and 2)
[21] = small toads (45.0-89.9 gm), carrier 60% ethanol with 40% isopropanol, chloroxylenol content 2.50%
[22] = small toads (45.0-89.9 gm), carrier 60% ethanol with 40% isopropanol, chloroxylenol content 3.75%
[23] = small toads (45.0-89.9 gm), carrier 60% ethanol with 40% isopropanol, chloroxylenol content 5.00%
[24] = small toads (45.0-89.9 gm), carrier 70% ethanol in water, chloroxylenol content 2.50%
[25] = small toads (45.0-89.9 gm), carrier 70% ethanol with 30% isopropanol, chloroxylenol content 2.50%
[26] = small toads (45.0-89.9 gm), carrier 70% ethanol with 30% isopropanol, chloroxylenol content 3.75%
[27] = small toads (45.0-89.9 gm), carrier 70% ethanol with 30% isopropanol, chloroxylenol content 5.00%
[28] = small toads (45.0-89.9 gm), carrier 70% ethanol with 30% methanol, chloroxylenol content 2.50%
[29] = small toads (45.0-89.9 gm), carrier 80% ethanol with 20% isopropanol, chloroxylenol content 2.50%
[30] = small toads (45.0-89.9 gm), carrier 80% ethanol with 20% isopropanol, chloroxylenol content 3.75%
[31] = small toads (45.0-89.9 gm), carrier 80% ethanol with 20% isopropanol, chloroxylenol content 5.00%
[32] = small toads (45.0-89.9 gm), carrier 98% ethanol with 2% citral, chloroxylenol content 2.50%
[33] = small toads (45.0-89.9 gm), carrier 100% ethanol, chloroxylenol content 0.50%, spray 3.0-3.3 gm
[34] = small toads (45.0-89.9 gm), carrier 100% ethanol, chloroxylenol content 2.50%
[35] = small toads (45.0-89.9 gm), carrier 100% ethanol, chloroxylenol content 5.00%
[36] = primary 100% ethanol 2.1-2.9 ml, secondary 5% chloroxylenol in 40% isopropanol/60% water, 1.0 ml, medium toads (90.0-139.9 gm)
[37] = primary 100% ethanol 2.1-2.9 ml, secondary 5% chloroxylenol in 40% isopropanol/60% water, 1.0 ml, small toads (45.0-89.9 gm)
[38] = primary 100% ethanol 2.1-2.9 ml, secondary 30% chloroxylenol in ethanol, 0.2 ml, small toads (45.0-89.9 gm)
[39] = primary 100% ethanol 2.1-2.9 ml, secondary 30% chloroxylenol in ethanol, 0.5 ml, small toads (45.0-89.9 gm)
[40] = primary 100% ethanol 2.1 ml, secondary 15% chloroxylenol in 60% isopropanol/40% water, 1.0 ml, small toads (45.0-89.9 gm)

## Cc1cc(O)cc(C)c1Cl [chloroxylenol, 4-chloro 3,5-dimethyl phenol]
Cane toads [1]; 2.5% chloroxylenol, from fitted line of FIG. 2
  predicted time to kill toads of up to 200 gm weight: less than 60 minutes
Cane toads [1]; compositions with 2.5% or more chloroxylenol
  large toads killed/treated: 31/32
Cane toads [1]; compositions with 2.5% or more chloroxylenol, all toads treated (33)
  medium-sized toads killed: 33
Cane toads [1]; [4]
  mean time to death: 52 min
  number died/number tested: 5/5
Cane toads [1]; [5]
  mean time to death: 47 min
  number died/number tested: 4/4
Cane toads [1]; [6]
  mean time to death: 39 min
  number died/number tested: 7/7
Cane toads [1]; large toads (≧140 gm), carrier 70% ethanol with 30% isopropanol, chloroxylenol content 1.25%
  number died/number tested: 0/7;
Cane toads [1]; [7]
  mean time to death: 50 min
  number died/number tested: 7/7
Cane toads [1]; [8]
  mean time to death: 60 min
  number died/number tested: 7/7
Cane toads [1]; [9]
  mean time to death: 91 min
  number died/number tested: 1/1
Cane toads [1]; [10]
  mean time to death: 34 min
  number died/number tested: 3/4
Cane toads [1]; [11]
  mean time to death: 53 min
  number died/number tested: 4/4
Cane toads [1]; [12]
  mean time to death: 48 min
  number died/number tested: 4/4
Cane toads [1]; [13]
  mean time to death: 46 min
  number died/number tested: 4/4
Cane toads [1]; [14]
  mean time to death: 28 min
  number died/number tested: 7/7
Cane toads [1]; [15]
  mean time to death: 65 min
  number died/number tested: 5/5
Cane toads [1]; [16]
  mean time to death: 39 min
  number died/number tested: 5/5
Cane toads [1]; [17]
  mean time to death: 37 min
  number died/number tested: 5/5
Cane toads [1]; [18]
  mean time to death: 31 min
  number died/number tested: 4/4
Cane toads [1]; [19]
  mean time to death: 52 min
  number died/number tested: 4/4
Cane toads [1]; of 93 in total, three chloroxylenol concentrations in four propanol-ethanol carriers
  tests in which a lethal outcome was achieved: 92
Cane toads [1]; [20]
  large toads died within 40 minutes (number): 12/32
  large toads died within 40 minutes (percent): 37%
  large toads died within 60 minutes (number): 23/32
  large toads died within 60 minutes (percent): 72%
  medium toads died within 40 minutes (number): 25/33
  medium toads died within 40 minutes (percent): 75%
  medium toads died within 60 minutes (number): 30/33
  medium toads died within 60 minutes (percent): 91%
  small toads killed in <30 minutes (number): 22/28
  small toads killed in <30 minutes (percent): 78%
  time to death, all medium sized toads: ≤ 102 min
  time to death, large toads, all but one: ≤ 120 min
Cane toads [1]; pooled: 2.5%, 3.75%, 5% chloroxylenol in four ethanol/propanol carriers (FIGS. 1 and 2)
  time to death, all small toads: ≤ 40 min
Cane toads [1]; [21]
  mean time to death: 27 min
  number died/number tested: 3/3
Cane toads [1]; [22]
  mean time to death: 19 min
  number died/number tested: 3/3
Cane toads [1]; [23]
  mean time to death: 21 min
  number died/number tested: 5/5
Cane toads [1]; [24]
  mean time to death: 46 min
  number died/number tested: 3/3
Cane toads [1]; [25]
  mean time to death: 26 min
  number died/number tested: 3/3
Cane toads [1]; [26]
  mean time to death: 26 min
  number died/number tested: 3/3
Cane toads [1]; [27]
  mean time to death: 22 min
  number died/number tested: 3/3
Cane toads [1]; [28]
  mean time to death: 38 min
  number died/number tested: 3/3
Cane toads [1]; [29]
  mean time to death: 25 min
  number died/number tested: 2/2
Cane toads [1]; [30]
  mean time to death: 22 min
  number died/number tested: 4/4
Cane toads [1]; [31]
  mean time to death: 16 min
  number died/number tested: 2/2
Cane toads [1]; [32]
  mean time to death: 25 min
  number died/number tested: all three toads tested were killed and 3/3
Cane toads [1]; [33]
  mean time to death: 62 min
  number died/number tested: one third and 1/3
Cane toads [1]; [34]
  mean time to death: 28 min
  number died/number tested: 3/3
Cane toads [1]; [35]
  mean time to death: 22 min
  number died/number tested: 3/3
Cane toads [1]; small toads, ethanol as sole carrier or mixtures of ethanol and propanol, at least 2.5% chloroxylenol
  mean times to death: less than 30 minutes
Cane toads [2]; chloroxylenol in carriers (ethanol alone or dilutions of propanol), all toads treated (12)
  ethanol-anaesthetised toads exterminated: 12
Cane toads [2]; [36]
  mean time to death: 28 min
  number died/number tested: 1/1
Cane toads [2]; [37]
  mean time to death: 30 min
  number died/number tested: 5/5
Cane toads [2]; [38]
  mean time to death: 71 min
  number died/number tested: 2/2
Cane toads [2]; [39]
  mean time to death: 64 min
  number died/number tested: 2/2
Cane toads [2]; [40]
  mean time to death: 24 min
  number died/number tested: 2/2
Cane toads [2]; two-step tests of Example 1
  onset of death: 16 to 102 min

## CCO [ethanol]
Cane toads [3]; toads of all sizes
  anaesthetic effect of topical application: rapid- and long-acting anaesthetic
Cane toads [3]; very small toads = less than about 45 gm
  lethality of ethanol alone: death only in some (but not all) very small toads
Cane toads [2]; mist of ethanol on dorsal surface, 2-3 gm
  lag period before onset of anaesthesia (toad stupefied, unable to right itself): 10 to 15 min
